Reference: patent EP0164478A2, “Citric-acid salt of (-)vinburnine and process for its preparation” (COVEX (S.A.), priority 1984, dated 1985)
Counter-ions that a name gives are not always drawn.

How the values were obtained:
[1] = DL50 in the dog, intravenous administration; assay type: in vivo, chien; conditions: i.v.; for DL50: relative to vinburnine = 1,0 (arbitrary)
Description: Les propriétés pharmacologiques du citrate de vinburnine ont été utlisées en thérapie avec de bons résultats.

Solubility in water = assay type: physicochemical; conditions: water / aqueous solution
oxyhémoglobine = experiment: Dissociation of oxyhaemoglobin in anaesthetised dogs (Fig. 2); assay type: in vivo, chiens; conditions: 5mg/kg (Fig. 2)
Description: (§1) L'invention sera mieux comprise à la lecture du complément de description qui suit se référant aux dessins annexés dans lesquels: • - La Fig.l est une illustration graphique de l'augmentation de consommation cérébrale de desoxyglucose chez un animal traité avec le citrate de vinburnine • - La Fig.2, est une illustration graphique de l'augmentation de la dissociation de l'oxyhémoglobine chez un animal traité avec le citrate de vinburnine. Dans l'étude sur l'augmentation de la consommation du glucose, on a utilisé des doses de 1 à 4 Mg/kg de citrate de vinburnine chez des chiens auxquels on administre du deoxyglucose marqué au C14, par voie orale.
(§2) Cette différence observée dans l'importance de la dissociation de l'oxyhémoglobine par la vinburnine et le citrate de vinburnine est illustrée sur le graphique de la Fig.2.

[2] = test system: circulation cérébrale (artère carotide interne); experiment: Cerebral circulation (internal carotid artery) and vascular resistance after intravenous and intra-arterial administration in dogs; assay type: in vivo, chiens; conditions: relative to vinburnine = 1,0 (arbitrary); for CERVEAU Diminution résistance vasculaire i.v. / CERVEAU augmentation circulation i.v.: 1 à 4 mg/kg, 4 mg/kg
Protocol: D'autre part, on a réalisé une étude spr la pression sanguine et la circulation cérébrale en administrant des doses intraveineuses de 1 à 4 mg/kg d'animal.
Dans l'étude de l'effet de ce composé, on a enregistré et calculé la circulation cérébrale (artère carotide interne) et la résistance vasculaire lors de l'administration des composés par voie intraveineuse et intraartérielle chez des chiens. Les valeurs données dans le tableau suivant sont rapportés à la valeur de 1,0 donnée arbitrairement à la vinburnine.

[3] = test system: consommation cérébrale du C14-desoxyglucose; experiment: Cerebral consumption of C14-labelled deoxyglucose in dogs (Fig. 1); assay type: in vivo, chiens; conditions: 1 à 4 Mg/kg, C14-deoxyglucose given orally, compared with untreated animal and with vinburnine (Fig. 1)
Description: as §1, §2

CC[C@]12CCCN3CCc4c(n(c5ccccc45)C(=O)C1)[C@@H]32 [citrate de vinburnine, citrate de (-) vinburnine]
valeurs de DL50 ([1]; in words, compared with vinburnine base): sensiblement inférieures à celles correspondant à la vinburnine sous forme de base
DL50 [1]: 1,2
solubilité dans l'eau (Solubility in water): soluble en solution aqueuse
dissociation de l'oxyhémoglobine (oxyhémoglobine): augmentation dans la dissociation de l'oxyhémoglobine
CERVEAU Diminution résistance vasculaire i.a. [2]: 0,6
CERVEAU augmentation circulation i.a. [2]: 0,8
CERVEAU Diminution résistance vasculaire i.v. [2]: 0,8
CERVEAU augmentation circulation i.v. [2]: 0,9
consommation cérébrale du C14-desoxyglucose [3]: consommation du glucose plus importante

CC[C@]12CCCN3CCc4c(n(c5ccccc45)C(=O)C1)[C@@H]32 [vinburnine]
DL50 [1]: 1,0
solubilité dans l'eau (Solubility in water): insoluble dans l'eau
CERVEAU Diminution résistance vasculaire i.a. [2]: 1,0
CERVEAU augmentation circulation i.a. [2]: 1,0
CERVEAU Diminution résistance vasculaire i.v. [2]: 1,0
CERVEAU augmentation circulation i.v. [2]: 1,0
consommation cérébrale du C14-desoxyglucose [3]: augmentation de la consommation cérébrale du C14-desoxyglucose
